In US20060063759A1, “Tricyclic steroid hormone nuclear receptor modulators” (priority 2002, published 2006):

Assays:
human MR = biological target: T1, human MR (Homo sapiens, UniProt P08235); experiment: Mineralocorticoid Receptor Binding Assay ([3H]-aldosterone); conditions: [3H]-aldosterone binding, human MR expressed in Sf9 cells; read-out: MR Ki
T1 construct: The full length human MR gene is cloned from a human kidney or human brain cDNA library; His tag from the pAcHLT vector (own knowledge); made in house; host or cells: Sf9 insect cells (baculovirus, pAcHLT transfer vector)
T1 sequence (P08235 1-984): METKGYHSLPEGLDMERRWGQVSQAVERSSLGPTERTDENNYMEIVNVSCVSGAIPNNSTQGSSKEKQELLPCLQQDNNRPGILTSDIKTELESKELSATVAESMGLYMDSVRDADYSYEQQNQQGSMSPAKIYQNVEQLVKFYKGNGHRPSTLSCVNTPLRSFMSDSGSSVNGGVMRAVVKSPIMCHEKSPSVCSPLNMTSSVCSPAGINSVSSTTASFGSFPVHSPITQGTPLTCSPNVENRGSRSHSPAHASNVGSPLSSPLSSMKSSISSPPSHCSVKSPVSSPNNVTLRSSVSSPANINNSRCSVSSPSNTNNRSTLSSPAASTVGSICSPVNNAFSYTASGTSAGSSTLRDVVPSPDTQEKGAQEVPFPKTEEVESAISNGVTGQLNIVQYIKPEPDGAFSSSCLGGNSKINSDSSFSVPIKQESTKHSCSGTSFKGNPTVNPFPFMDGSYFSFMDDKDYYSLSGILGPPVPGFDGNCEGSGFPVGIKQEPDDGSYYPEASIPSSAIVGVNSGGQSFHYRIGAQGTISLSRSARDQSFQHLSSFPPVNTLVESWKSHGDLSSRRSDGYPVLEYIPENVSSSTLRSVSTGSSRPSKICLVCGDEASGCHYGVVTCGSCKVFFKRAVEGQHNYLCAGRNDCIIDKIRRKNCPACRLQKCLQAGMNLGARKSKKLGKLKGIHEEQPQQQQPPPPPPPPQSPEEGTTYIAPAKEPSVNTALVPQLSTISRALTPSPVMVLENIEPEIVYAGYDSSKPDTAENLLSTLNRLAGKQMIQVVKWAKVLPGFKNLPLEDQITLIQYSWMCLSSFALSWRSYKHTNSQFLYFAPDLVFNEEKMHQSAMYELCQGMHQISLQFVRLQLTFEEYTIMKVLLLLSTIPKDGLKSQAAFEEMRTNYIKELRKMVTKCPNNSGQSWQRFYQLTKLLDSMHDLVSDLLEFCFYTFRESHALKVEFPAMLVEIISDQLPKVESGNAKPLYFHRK
How it was run: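 Lysate supernatant of Sf9 cells expressing full-length human MR (20-25 μg protein) was incubated with 0.5 nM [3H]-aldosterone and test compound in molybdate/Tris/phosphate/glycerol buffer, pH 7.5, ~16 h at 4 °C. Bound ligand was filtered and counted by scintillation; IC50 is the concentration halving [3H]-aldosterone binding.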

glucocorticoid receptor = biological target: T2, glucocorticoid receptor (Homo sapiens, UniProt P04150); experiment: Glucocorticoid Receptor Binding Assay ([3H]-dexamethasone, A549 cell extract); conditions: [3H]-dexamethasone binding, read-out: GR Ki
T2 construct: containing 50-200 ug of A549 cell extract and 1.86 nM [^3H]-dexamethasone; host or cells: A549 human lung epithelial cells (sonicated cell extract)
T2 sequence (P04150 1-777): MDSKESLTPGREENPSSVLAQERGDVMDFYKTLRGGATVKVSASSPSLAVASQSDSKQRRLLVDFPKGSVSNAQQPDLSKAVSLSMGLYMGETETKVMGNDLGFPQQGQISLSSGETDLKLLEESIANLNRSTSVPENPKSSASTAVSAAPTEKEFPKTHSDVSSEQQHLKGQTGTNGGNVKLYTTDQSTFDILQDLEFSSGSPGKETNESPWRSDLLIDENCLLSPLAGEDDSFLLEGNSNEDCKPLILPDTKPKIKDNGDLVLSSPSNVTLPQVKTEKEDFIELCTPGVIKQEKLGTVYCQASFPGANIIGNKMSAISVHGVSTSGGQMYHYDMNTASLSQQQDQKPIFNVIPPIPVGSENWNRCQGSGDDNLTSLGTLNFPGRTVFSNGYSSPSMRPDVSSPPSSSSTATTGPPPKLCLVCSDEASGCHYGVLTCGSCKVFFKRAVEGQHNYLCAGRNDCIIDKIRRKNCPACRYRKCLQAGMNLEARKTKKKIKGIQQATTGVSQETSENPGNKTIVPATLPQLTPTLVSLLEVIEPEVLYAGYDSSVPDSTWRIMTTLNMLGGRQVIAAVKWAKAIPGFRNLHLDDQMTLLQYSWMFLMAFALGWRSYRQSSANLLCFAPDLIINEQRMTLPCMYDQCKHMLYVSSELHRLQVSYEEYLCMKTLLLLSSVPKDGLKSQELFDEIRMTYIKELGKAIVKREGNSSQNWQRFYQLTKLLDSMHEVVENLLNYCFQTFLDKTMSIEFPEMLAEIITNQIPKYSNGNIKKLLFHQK
How it was run: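 A549 cell extract (50–200 ug) incubated with 1.86 nM [3H]-dexamethasone and test compound for 16 h at 4 °C in Tris-HCl pH 7.2 buffer with glycerol and molybdate. Unbound radioligand removed by dextran-coated charcoal, then supernatant bound counts measured by scintillation.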

Row | Structure (SMILES) | Ki (human MR) [nM] | Ki (glucocorticoid receptor) [nM]
1 | CS(=O)(=O)Nc1cccc(/C=C2/c3ccccc3COc3cc(F)ccc32)c1 [Example 629] | < 500 | < 500
2 | CS(=O)(=O)Nc1cc(F)cc(/C=C2/c3ccc(Cl)cc3COc3ccccc32)c1 [Example 624] | < 500 | < 500
3 | Cc1ccc2c(c1)OCc1ccccc1/C2=C/c1cccc(NS(C)(=O)=O)c1 [Example 675] | < 500 | < 500
4 | CC(=C1c2ccc(C)cc2CCc2cc(F)ccc21)c1cccc(NS(C)(=O)=O)c1 [Example 830] | < 500 | < 500
5 | CS(=O)(=O)Nc1ccc(C=C2c3ccccc3CCc3c(Cl)cccc32)cc1 (mixture of isomers) [Example 210, N-[4-(1-Chloro-10,11-dihydro-dibenzo[a,d]cyclohepten-5ylidenemethyl)-phenyl]-methanesulfonamide] | < 500 | < 1000
6 | COc1ccc2c(c1)CCc1ccccc1C2=Cc1cccc(NS(C)(=O)=O)c1 [Example 161, N-[3-(2-Methoxy-10,11-dihydro-dibenzo[a,d]cyclohepten-5-ylidenemethyl)-phenyl]-methanesulfonamide] | < 500 | < 500
7 | CS(=O)(=O)Nc1cccc(/C=C2\c3ccccc3NC(=O)c3ccccc32)c1 [Example 261, N-[3-(6-Oxo-5,6-dihydro-dibenzo[b,e]azepin-11-ylidenemethyl)-phenyl]-methanesulfonamide] | < 500 | < 500
8 | CS(=O)(=O)Nc1cccc(C=C2c3ccccc3CCc3c(N)cccc32)c1 [Example 403] | < 500 | < 500
9 | O=c1[nH]c2ccc(/C=C3\c4ccccc4CCc4cc(F)ccc43)cc2[nH]1 [Example 448] | < 500 | < 10000
10 | O=S(=O)(Nc1cccc(C=C2c3ccccc3CCc3cc(Cl)ccc32)c1)c1ccc(F)cc1 [Example 291] | < 500 | < 500
11 | CS(=O)(=O)Nc1ccc(/C=C2/c3ccc(F)cc3CCc3ncccc32)cc1 [Example 537] | < 500 | < 10000
12 | COc1ccc2c(c1)CCc1cc(C)ccc1C2=Cc1cccc(NS(C)(=O)=O)c1 [Example 419] | < 500 | < 500
13 | CS(=O)(=O)Nc1ccc2c(c1)CCc1ccccc1/C2=C\c1cccc(O)c1 [Example 338] | < 500 | < 1000
14 | Cc1cccc2c1CCc1ccccc1/C2=C/c1ccc(NS(C)(=O)=O)cc1 [Example 315] | < 500 | < 10000
15 | CS(=O)(=O)Nc1cccc(/C=C2\c3ccccc3CCc3cc(-c4ccccc4)ccc32)c1 [Example 308] | < 500 | < 10000
16 | O=c1[nH]c2cc(/C=C3\c4ccccc4COc4cc(F)ccc43)ccc2s1 [Example 637] | < 500 | < 500
17 | C(=C1c2ccccc2CCc2ccccc21)c1ccc2ocnc2c1 [Example 217, 5-(10,11-Dihydro-dibenzo[a,d]cyclohepten-5-ylidenemethyl)-benzooxazole] | < 500 | < 10000
18 | CS(=O)(=O)Nc1cccc(/C=C2/c3ccccc3CCc3c2cccc3C(F)F)c1 [Example 381] | < 500 | < 500
19 | Cn1c(=O)[nH]c2cc(C=C3c4ccc(F)cc4CCc4cc(F)ccc43)ccc21 [Example 459] | < 500 | < 1000
20 | COCC(=O)Nc1cccc(C=C2c3ccccc3CCc3cc(Cl)ccc32)c1 [Example 299] | < 500 | < 1000

Row | Structure (SMILES) | Ki (human MR) [nM] | Ki (glucocorticoid receptor) [nM]
21 | CCC/C(=C1/c2ccccc2COc2ccccc21)c1cccc(NS(C)(=O)=O)c1 [Example 802] | < 500 | < 500
22 | Cc1ccc2c(c1)CCc1cc(C)ccc1C2=Cc1cccc(NS(C)(=O)=O)c1 [Example 325] | < 500 | < 500
23 | CS(=O)(=O)Nc1cccc(/C=C2\c3ccccc3CCc3cc(C(=O)O)ccc32)c1 [Example 417] | < 500 | < 500
24 | COc1cc2c(c(OC)c1)/C(=C\c1cccc(NS(C)(=O)=O)c1)c1ccccc1SC2 [Example 687] | < 500 | < 500
25 | COc1ccc(OC)c(C=C2c3ccccc3CCc3ccccc32)c1 [Example 52, 5-(2,5-Dimethoxy-benzylidene)-10,11-dihydro-5H-dibenzo[a,d]cycloheptene] | < 500 | < 10000
26 | O=c1[nH]c2ccc(C=C3c4ccc(F)cc4COc4cc(F)ccc43)cc2[nH]1 [Example 644] | < 500 | < 1000
27 | O=C1Nc2ccccc2C(=Cc2cccc(Cl)c2)c2ccccc21 (mixture of isomers) [Example 649] | < 500 | < 10000
28 | CS(=O)(=O)Nc1cccc(/C=C2/c3ccccc3CCc3cc(S(C)(=O)=O)ccc32)c1 [Example 393] | < 500 | < 500
29 | CC(C)n1c(=O)[nH]c2cc(/C=C3\c4ccc(F)cc4CCc4ncccc43)ccc21 [Example 592] | < 500 | < 10000
30 | COc1cc(C=C2c3ccccc3CCc3ccccc32)ccc1F [Example 148, 5-(4-Fluoro-3-methoxy-benzylidene)-10,11-dihydro-5H-dibenzo[a,d]cycloheptene] | < 500 | < 1000
31 | CN(C)C(=O)Nc1cccc(C=C2c3ccccc3CCc3cc(Cl)ccc32)c1 [Example 397] | < 500 | < 10000
32 | COc1cccc2c1/C(=C\c1cccc(NS(C)(=O)=O)c1)c1ccccc1OC2 [Example 704] | < 500 | < 500
33 | CS(=O)(=O)Nc1cccc(C=C2c3ccccc3CCc3ccc(Cl)cc32)c1 [188(a), N-[3-(3-Chloro-10,11-dihydro-dibenzo[a,d]cyclohepten-5-ylidenemethyl)-phenyl]-methanesulfonamide] | < 500 | < 500
34 | COc1ccc2c(c1)COc1cc(F)ccc1/C2=C/c1cccc(NS(C)(=O)=O)c1 [Example 736] | < 500 | < 500
35 | COc1ccc2c(c1)CCc1cc(OC)ccc1C2=Cc1ccc(OCCN2CCCCC2)cc1 [Example 333] | < 500 | < 500
36 | COc1ccc2c(c1)CCc1cc(C)ccc1/C2=C/c1cccc(NS(C)(=O)=O)c1 [Example 424] | < 500 | < 500
37 | CS(=O)(=O)Nc1cccc(/C=C2/c3ccccc3CCc3scnc32)c1 [484(b), N-[3-(9,10-Dihydro-1-thia-3-aza-benzo[f]azulen-4-ylidenemethyl)-phenyl]-methanesulfonamide] | < 500 | < 500
38 | Cc1ccc(S(=O)(=O)Nc2cccc(C=C3c4ccccc4CCc4cc(Cl)ccc43)c2)cc1 [Example 292] | < 500 | < 500
39 | CS(=O)(=O)Nc1cccc(/C=C2/c3ccccc3COc3ccc(Cl)cc32)c1 [Example 680] | < 500 | < 1000
